Data published in ChEMBL document CHEMBL3045385, “Design, synthesis and molecular modelling of novel 4-thiazolidinones of potential activity against Gram positive bacteria” (2013).
In brackets after ≈: the same amount, converted by molar mass. Activity calls are given as the source filed them. The calls are words filed in the database; no cut-off is given here.

Key:
Pseudomonas aeruginosa [1] = assay: Antibacterial activity against Pseudomonas aeruginosa ATCC 27855 at 6.25 to 100 ug/ml after 24 hr by two-fold serial dilution method; type: functional, organism-based
Salmonella typhimurium [2] = assay: Antibacterial activity against Salmonella enterica subsp. enterica serovar Typhimurium at 6.25 to 100 ug/ml after 24 hr by two-fold serial dilution method; type: functional, organism-based
[3] = test system: Mycobacterium tuberculosis; assay: Antimycobacterium activity against Mycobacterium tuberculosis H37Rv at 100 ug/ml by Microplate Alamar Blue Assay; type: functional, organism-based
Candida albicans [4] = assay: Antifungal activity against Candida albicans ATCC 10231 at 6.25 to 100 ug/ml after 7 days by two-fold serial dilution method; type: functional, organism-based
Staphylococcus aureus [5] = assay: Antibacterial activity against Staphylococcus aureus ATCC 25293 after 24 hr by two-fold serial dilution method; type: functional; conditions: ATCC 25293, 24 h
Bacillus subtilis [6] = assay: Antibacterial activity against Bacillus subtilis ATCC 10400 after 24 hr by two-fold serial dilution method; type: functional; conditions: ATCC 10400, 24 h
Shigella sonnei [7] = assay: Antibacterial activity against Shigella sonnei ATCC 11060 at 6.25 to 100 ug/ml after 24 hr by two-fold serial dilution method; type: functional, organism-based
Escherichia coli [8] = assay: Antibacterial activity against Escherichia coli ATCC 25922 at 6.25 to 100 ug/ml after 24 hr by two-fold serial dilution method; type: functional, organism-based
Staphylococcus aureus [9] = assay: Antibacterial activity against Staphylococcus aureus ATCC 25293 at 6.25 to 100 ug/ml after 24 hr by two-fold serial dilution method; type: functional, organism-based
Bacillus subtilis [10] = assay: Antibacterial activity against Bacillus subtilis ATCC 10400 at 6.25 to 100 ug/ml after 24 hr by two-fold serial dilution method; type: functional, organism-based
Pseudomonas aeruginosa [11] = assay: Antibacterial activity against Pseudomonas aeruginosa ATCC 27855 after 24 hr by two-fold serial dilution method; type: functional; conditions: ATCC 27855, 24 h
Candida albicans [12] = assay: microbe, parasite or virus in culture; conditions: ATCC 10231, 168 h
Description: Antifungal activity against Candida albicans ATCC 10231 after 7 days by two-fold serial dilution method

Salmonella typhimurium [13] = assay: Antibacterial activity against Salmonella enterica subsp. enterica serovar Typhimurium after 24 hr by two-fold serial dilution method; type: functional
Shigella sonnei [14] = assay: Antibacterial activity against Shigella sonnei ATCC 11060 after 24 hr by two-fold serial dilution method; type: functional; conditions: ATCC 11060, 24 h
Escherichia coli [15] = assay: Antibacterial activity against Escherichia coli ATCC 25922 after 24 hr by two-fold serial dilution method; type: functional; conditions: ATCC 25922, 24 h

Row | SMILES | Activity (Pseudomonas aeruginosa [1]) | Activity (Salmonella typhimurium [2]) | Activity [3] | Activity (Candida albicans [4]) | MIC (Staphylococcus aureus [5]) | MIC (Bacillus subtilis [6]) | Activity (Shigella sonnei [7]) | Activity (Escherichia coli [8]) | Activity (Staphylococcus aureus [9]) | Activity (Bacillus subtilis [10]) | MIC (Pseudomonas aeruginosa [11]) | MIC (Candida albicans [12]) | MIC (Salmonella typhimurium [13]) | MIC (Shigella sonnei [14]) | MIC (Escherichia coli [15])
1 | CC(Oc1cc(Cl)c(Cl)cc1Cl)C(=O)NN1C(=O)CSC1c1cccs1 (configuration not stated) | inactive | inactive | inactive | inactive | 6.25 µg/mL (≈ 13.8 µM) | 6.25 µg/mL (≈ 13.8 µM) | inactive | inactive | – | – | – | – | – | – | –
2 | C#CCN1C(=O)C2(SCC(=O)N2NC(=O)C(C)Oc2cc(Cl)c(Cl)cc2Cl)c2ccccc21 (configuration not stated) | inactive | inactive | inactive | inactive | 50 µg/mL (≈ 95.3 µM) | 50 µg/mL (≈ 95.3 µM) | inactive | inactive | – | – | – | – | – | – | –
3 | CC(Oc1cc(Cl)c(Cl)cc1Cl)C(=O)NN1C(=O)CSC1c1cccnc1 (configuration not stated) | inactive | inactive | inactive | inactive | 6.25 µg/mL (≈ 14 µM) | 12.5 µg/mL (≈ 28 µM) | inactive | inactive | – | – | – | – | – | – | –
4 | Cc1ccc(/C=N\NC(=O)C(C)Oc2cc(Cl)c(Cl)cc2Cl)s1 (configuration not stated) | inactive | inactive | inactive | inactive | – | – | inactive | inactive | inactive | inactive | – | – | – | – | –
5 | Cc1ccc(C2(C)SCC(=O)N2NC(=O)C(C)Oc2cc(Cl)c(Cl)cc2Cl)cc1 (configuration not stated) | inactive | inactive | inactive | inactive | 12.5 µg/mL (≈ 26.4 µM) | 6.25 µg/mL (≈ 13.2 µM) | inactive | inactive | – | – | – | – | – | – | –
6 | C/C(=N/NC(=O)C(C)Oc1cc(Cl)c(Cl)cc1Cl)c1ccc(C)cc1 (configuration not stated) | inactive | inactive | inactive | inactive | – | – | inactive | inactive | inactive | inactive | – | – | – | – | –
7 | CC(Oc1cc(Cl)c(Cl)cc1Cl)C(=O)N/N=C1/C(=O)Nc2ccccc21 (configuration not stated) | inactive | inactive | inactive | inactive | – | – | inactive | inactive | inactive | inactive | – | – | – | – | –
8 | CC(Oc1cc(Cl)c(Cl)cc1Cl)C(=O)N/N=C\c1cccnc1 (configuration not stated) | inactive | inactive | inactive | inactive | – | – | inactive | inactive | inactive | inactive | – | – | – | – | –
9 | CC(Oc1cc(Cl)c(Cl)cc1Cl)C(=O)N/N=C\c1cccs1 (configuration not stated) | inactive | inactive | inactive | inactive | – | – | inactive | inactive | inactive | inactive | – | – | – | – | –
10 | CC(Oc1cc(Cl)c(Cl)cc1Cl)C(=O)NN1C(=O)CSC1c1ccncc1 (configuration not stated) | inactive | inactive | inactive | inactive | 6.25 µg/mL (≈ 14 µM) | 6.25 µg/mL (≈ 14 µM) | inactive | inactive | – | – | – | – | – | – | –
11 | Clc1ccc(COC(Cn2ccnc2)c2ccc(Cl)cc2Cl)c(Cl)c1 (configuration not stated) [MICONAZOLE] | – | – | – | – | – | – | – | – | – | – | 3.12 µg/mL (≈ 7.5 µM) | 3.12 µg/mL (≈ 7.5 µM) | – | – | –
12 | C#CCN1C(=O)/C(=N/NC(=O)C(C)Oc2cc(Cl)c(Cl)cc2Cl)c2ccccc21 (configuration not stated) | inactive | inactive | inactive | inactive | – | – | inactive | inactive | inactive | inactive | – | – | – | – | –
13 | Cc1ccc(C2SCC(=O)N2NC(=O)C(C)Oc2cc(Cl)c(Cl)cc2Cl)o1 (configuration not stated) | inactive | inactive | inactive | inactive | 12.5 µg/mL (≈ 27.8 µM) | 12.5 µg/mL (≈ 27.8 µM) | inactive | inactive | – | – | – | – | – | – | –
14 | C/C(=N/NC(=O)C(C)Oc1cc(Cl)c(Cl)cc1Cl)c1ccc(Cl)cc1 (configuration not stated) | inactive | inactive | inactive | inactive | – | – | inactive | inactive | inactive | inactive | – | – | – | – | –
15 | Cc1ccc(C2SCC(=O)N2NC(=O)C(C)Oc2cc(Cl)c(Cl)cc2Cl)s1 (configuration not stated) | inactive | inactive | inactive | inactive | 12.5 µg/mL (≈ 26.8 µM) | 12.5 µg/mL (≈ 26.8 µM) | inactive | inactive | – | – | – | – | – | – | –
16 | CC(Oc1cc(Cl)c(Cl)cc1Cl)C(=O)NN1C(=O)CSC12C(=O)Nc1ccccc12 (configuration not stated) | inactive | inactive | inactive | inactive | 25 µg/mL (≈ 51.4 µM) | 50 µg/mL (≈ 103 µM) | inactive | inactive | – | – | – | – | – | – | –
17 | O=C(N[C@H](CO)[C@H](O)c1ccc([N+](=O)[O-])cc1)C(Cl)Cl [CHLORAMPHENICOL] | – | – | – | – | 6.25 µg/mL (≈ 19.3 µM) | 6.25 µg/mL (≈ 19.3 µM) | – | – | – | – | – | – | 25 µg/mL (≈ 77.4 µM) | 25 µg/mL (≈ 77.4 µM) | 12.5 µg/mL (≈ 38.7 µM)
18 | CC(Oc1cc(Cl)c(Cl)cc1Cl)C(=O)NN1C(=O)CSC1c1cccc([N+](=O)[O-])c1 (configuration not stated) | inactive | inactive | inactive | inactive | 12.5 µg/mL (≈ 25.5 µM) | 12.5 µg/mL (≈ 25.5 µM) | inactive | inactive | – | – | – | – | – | – | –
19 | Cc1ccc(/C=N\NC(=O)C(C)Oc2cc(Cl)c(Cl)cc2Cl)o1 (configuration not stated) | inactive | inactive | inactive | inactive | – | – | inactive | inactive | inactive | inactive | – | – | – | – | –
20 | CC(Oc1cc(Cl)c(Cl)cc1Cl)C(=O)NN1C(=O)CSC1(C)c1ccc(Cl)cc1 (configuration not stated) | inactive | inactive | inactive | inactive | 12.5 µg/mL (≈ 25.3 µM) | 12.5 µg/mL (≈ 25.3 µM) | inactive | inactive | – | – | – | – | – | – | –
21 | CC(Oc1cc(Cl)c(Cl)cc1Cl)C(=O)N/N=C\c1ccncc1 (configuration not stated) | inactive | inactive | inactive | inactive | – | – | inactive | inactive | inactive | inactive | – | – | – | – | –
22 | CC(Oc1cc(Cl)c(Cl)cc1Cl)C(=O)N/N=C\c1cccc([N+](=O)[O-])c1 (configuration not stated) | inactive | inactive | inactive | inactive | – | – | inactive | inactive | inactive | inactive | – | – | – | – | –
